Assay results taken from ChEMBL document CHEMBL3045606, “Virtual screening and biochemical evaluation of the inhibitors of dual-specificity phosphatase 26” (Med Chem Res, 2013).

Key:
[1] = target: T1, Dual specificity protein phosphatase 26 (Homo sapiens, UniProt Q9BV47); assay: inhibition of Homo sapiens (human) recombinant DUSP26 catalytic domain (61 to 211 amino acid residues) overexpressed in Escherichia coli BL21 (DE3) assessed as hydrolysis of 3-ortho-methylfluorescein phosphate after 30 min by spectrofluorometric analysis
T1 sequence (Q9BV47 whole entry): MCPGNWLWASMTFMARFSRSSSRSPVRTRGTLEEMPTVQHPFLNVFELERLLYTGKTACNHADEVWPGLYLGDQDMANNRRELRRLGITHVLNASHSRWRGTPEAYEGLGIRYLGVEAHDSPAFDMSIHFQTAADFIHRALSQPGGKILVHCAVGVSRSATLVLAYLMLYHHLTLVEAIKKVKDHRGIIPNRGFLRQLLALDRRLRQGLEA

[2] = target: T1, Dual specificity protein phosphatase 26; assay: Inhibition of DUSP26 (unknown origin)-mediated p38 dephosphorylation

IC50 [1] | IC50 [2] | Compound
30.2 µM | – | C=CCOc1ccc(/C=C2\SC(=S)N(c3cccc(C(=O)O)c3)C2=O)cc1
12.5 µM | – | CN1C(=O)/C(=C/c2ccc(OCc3cccc(F)c3)cc2)S/C1=N/c1cccc(C(=O)O)c1
26.3 µM | – | O=C(CN1C(=O)/C(=C\C=C\c2ccccc2)SC1=S)Nc1ccc(O)cc1C(=O)O
8.9 µM | – | O=C1OC(c2ccc(Cl)cc2)=C/C1=C\c1ccc(-c2ccc(Cl)c(C(=O)O)c2)o1
26.9 µM | – | CN1C(=O)/C(=C/c2ccc(OCc3ccc(F)cc3)cc2)S/C1=N/c1cccc(C(=O)O)c1
41.7 µM | – | CCN1C(=O)/C(=C/c2ccccc2OCc2ccccc2C#N)S/C1=N/c1ccc(C(=O)O)cc1
> 100 µM | – | Cc1ccc(C2=C/C(=C\c3ccc(-c4cccc(C(=O)O)c4)o3)C(=O)O2)cc1
25.1 µM | – | O=C(O)c1cccc(N2C(=O)/C(=C\c3ccc(O)c(O)c3)SC2=S)c1
– | 16.7 µM | O=S(=O)(O)c1ccc2cc(/N=N/c3cc(S(=O)(=O)O)c4cccnc4c3O)ccc2c1
22.3 µM | – | O=C(O)CCN1C(=O)/C(=C/c2cn(-c3ccccc3)nc2-c2cccc([N+](=O)[O-])c2)SC1=S
> 100 µM | – | O=C1OC(c2ccc(Cl)cc2)=C/C1=C\c1ccc(-c2cccc(C(=O)O)c2)o1
36.6 µM | – | CCc1cc(CC)cc(OCCOc2ccccc2/C=C2/C(=O)NN(c3ccccc3)C2=O)c1
19.8 µM | – | CN1C(=O)/C(=C/c2ccc(OCc3cccc([N+](=O)[O-])c3)cc2)S/C1=N/c1cccc(C(=O)O)c1
17 µM | – | O=C(O)c1ccc(Cl)cc1Nc1nc2ccccc2nc1NS(=O)(=O)c1ccc(Cl)cc1
